These results are taken from patent publication US3965260A, “Anti-inflammatory dipeptide” (McArthur; John N., priority 1975, dated 1976).

Peptide text beside a SMILES is read from it.

Series [1] concerns mammalian plasma and tissue peptidases.
The conditions of series [2]: in vivo.

Consider `N[C@H](Cc1c[nH]c2ccccc12)C(=O)N[C@H](Cc1c[nH]c2ccccc12)C(=O)O` [D-tryptophanyl-D-tryptophan] (HELM PEPTIDE1{[dW].[dW]}$$$$V2.0), for which, in series [1], the “hydrolysis by mammalian plasma and tissue peptidases” value (“hydrolysis” for short) was “resist rapid hydrolysis”. This compound also showed a half life in series [2] of at least 6 h.
As to `N[C@H](Cc1ccccc1)C(=O)N[C@H](Cc1ccccc1)C(=O)O` [D-phenylalanyl-D-phenylalanine] (HELM PEPTIDE1{[dF].[dF]}$$$$V2.0), the “hydrolysis” value in series [1] is recorded as “resist rapid hydrolysis”. The compound further gave a half life in series [2] of at least 6 h.
Consider `N[C@H](Cc1ccccc1)C(=O)N[C@H](Cc1c[nH]c2ccccc12)C(=O)O` [D-phenylalanyl-D-tryptophan] (HELM PEPTIDE1{[dF].[dW]}$$$$V2.0), for which the “hydrolysis” value in series [1] is “resist rapid hydrolysis”. Further, the half life in series [2] was at least 6 h.
Take `N[C@H](Cc1c[nH]c2ccccc12)C(=O)N[C@H](Cc1ccccc1)C(=O)O` [D-tryptophanyl-D-phenylalanine] (HELM PEPTIDE1{[dW].[dF]}$$$$V2.0): the “hydrolysis” value in series [1] is “resist rapid hydrolysis”. Moreover, the half life in series [2] was at least 6 h.
